From publication PMC7404261 (2020)

Assays:
[1] = tested on: dsDNA-G4 (DNA, duplex) CGGGAAAAGGCGCGCGGAAGGGGT/ACCCCTTCCGCGCGCCTTTTCCCG; assay: ethidium bromide staining of nondenaturing gel; settings: K+ (100 mM KCl annealing, 10 mM KCl gel); Tris/HCl pH 7.5 annealing; 1x TBE gel; 1 µg/mL EthBr after ThT staining
[2] = tested on: ssDNA-G4-Rv (DNA, single strand) ACCCCTTCCGCGCGCCTTTTCCCG; assay: ethidium bromide staining of nondenaturing gel; settings: K+ (100 mM KCl annealing, 10 mM KCl gel); Tris/HCl pH 7.5 annealing; 1x TBE gel; 1 µg/mL EthBr after ThT staining
[3] = tested on: ssDNA-G4-Fw (DNA, G4) CGGGAAAAGGCGCGCGGAAGGGGT; assay: ThT staining of nondenaturing gel; settings: K+ (100 mM KCl annealing, 10 mM KCl gel); Tris/HCl pH 7.5 annealing; 1x TBE gel; stained with 5 µM ThT
[4] = tested on: dsDNA-G4 (DNA, duplex) CGGGAAAAGGCGCGCGGAAGGGGT/ACCCCTTCCGCGCGCCTTTTCCCG; assay: ThT staining of nondenaturing gel; settings: K+ (100 mM KCl annealing, 10 mM KCl gel); Tris/HCl pH 7.5 annealing; 1x TBE gel; stained with 5 µM ThT
[5] = tested on: ssDNA-G4-Rv (DNA, single strand) ACCCCTTCCGCGCGCCTTTTCCCG; assay: ThT staining of nondenaturing gel; settings: K+ (100 mM KCl annealing, 10 mM KCl gel); Tris/HCl pH 7.5 annealing; 1x TBE gel; stained with 5 µM ThT
[6] = tested on: HpTYMS-G4-T (DNA, hairpin) GGGAAAAGGCGCGCGGAAGGGGTTTTTGGGGAAGGCGCGCGGAAAAGGG; assay: ThT staining of nondenaturing gel; settings: K+ (100 mM KCl annealing, 10 mM KCl gel); Tris/HCl pH 7.5 annealing; 1x TBE gel; stained with 5 µM ThT
[7] = tested on: HpTYMS-G4-T-WC (DNA, hairpin) CCCTTTTCCGCGCGCCTTCCCCTTTTTGGGGAAGGCGCGCGGAAAAGGG; assay: ThT staining of nondenaturing gel; settings: K+ (100 mM KCl annealing, 10 mM KCl gel); Tris/HCl pH 7.5 annealing; 1x TBE gel; stained with 5 µM ThT

Compound	binding [1]	binding [2]	binding [3]	binding [4]	binding [5]	binding [6]	binding [7]
CC[n+]1c(-c2ccccc2)c2cc(N)ccc2c2ccc(N)cc21	yes	yes	–	–	–	–	–
Cc1ccc2c(c1)sc(-c1ccc(N(C)C)cc1)[n+]2C	–	–	yes	no	no	yes	yes
